The values below are quoted from earlier work in patent US11395812B2, “Docetaxel albumin nanoparticle pharmaceutical composition, preparation method therefor and use thereof” (SICHUAN KELUN PHARMACEUTICAL RESEARCH INSTITUTE CO. LTD., priority 2015, dated 2022).

This series addresses T1, recombinant human cytochrome P4501B1 (hCYP1B1) (Homo sapiens, UniProt Q16678).
T1 sequence (Q16678 1-543): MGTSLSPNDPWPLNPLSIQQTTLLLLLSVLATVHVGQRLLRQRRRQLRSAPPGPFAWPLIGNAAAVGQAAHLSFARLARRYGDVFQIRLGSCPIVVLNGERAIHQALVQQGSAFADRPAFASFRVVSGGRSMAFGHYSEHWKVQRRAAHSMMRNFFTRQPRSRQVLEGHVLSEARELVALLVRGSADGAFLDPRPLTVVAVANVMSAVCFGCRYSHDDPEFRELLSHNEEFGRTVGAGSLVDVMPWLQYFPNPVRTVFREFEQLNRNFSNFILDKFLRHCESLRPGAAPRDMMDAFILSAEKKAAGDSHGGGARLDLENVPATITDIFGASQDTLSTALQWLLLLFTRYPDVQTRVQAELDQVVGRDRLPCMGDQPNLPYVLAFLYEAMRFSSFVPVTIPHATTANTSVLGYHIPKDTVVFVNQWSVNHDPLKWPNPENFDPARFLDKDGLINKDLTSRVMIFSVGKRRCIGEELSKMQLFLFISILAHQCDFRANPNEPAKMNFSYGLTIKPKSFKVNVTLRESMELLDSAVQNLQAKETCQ
The conditions noted are these: in vitro test.

Structures are written as SMILES.

On to `CC(=O)O[C@@]12CO[C@@H]1C[C@@H](O)[C@@]1(C)C(=O)[C@H](O)C3=C(C)[C@@H](OC(=O)[C@H](O)[C@@H](NC(=O)OC(C)(C)C)c4ccccc4)C[C@@](O)([C@@H](OC(=O)c4ccccc4)[C@H]21)C3(C)C` [7-epi-docetaxel], for which the “increase of the activity of hCYP1B1” value is recorded as “more than 7 times”.
